The results in this text go back to patent US10189854B2, “Substituted pyrimidine compounds” (Grünenthal GmbH, priority 2014, dated 2019).

In this experiment the target is human PDE4B1 (Homo sapiens (Human), UniProt Q07343). The experiment in a line: cAMP HTRF assay to determine the activity of hPDE4B1. It is filed as biochemical. To be noted: IC50 inhibition of PDE4B; human recombinant PDE4B1, cAMP HTRF assay. An outline of the steps:
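Recombinant human PDE4B1 expressed in Sf9 cells (4.8 U) was incubated with 40 nM cAMP for 30 min at room temperature in Tris buffer, pH 7.8, with MgCl2, DTT and Tween 20. HTRF detection of remaining cAMP followed, with 1 mM IBMX stop, read 60 min later as the 665/620 nm ratio. Results are % inhibition versus control.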

human PDE4B1, sequence (Q07343 whole entry): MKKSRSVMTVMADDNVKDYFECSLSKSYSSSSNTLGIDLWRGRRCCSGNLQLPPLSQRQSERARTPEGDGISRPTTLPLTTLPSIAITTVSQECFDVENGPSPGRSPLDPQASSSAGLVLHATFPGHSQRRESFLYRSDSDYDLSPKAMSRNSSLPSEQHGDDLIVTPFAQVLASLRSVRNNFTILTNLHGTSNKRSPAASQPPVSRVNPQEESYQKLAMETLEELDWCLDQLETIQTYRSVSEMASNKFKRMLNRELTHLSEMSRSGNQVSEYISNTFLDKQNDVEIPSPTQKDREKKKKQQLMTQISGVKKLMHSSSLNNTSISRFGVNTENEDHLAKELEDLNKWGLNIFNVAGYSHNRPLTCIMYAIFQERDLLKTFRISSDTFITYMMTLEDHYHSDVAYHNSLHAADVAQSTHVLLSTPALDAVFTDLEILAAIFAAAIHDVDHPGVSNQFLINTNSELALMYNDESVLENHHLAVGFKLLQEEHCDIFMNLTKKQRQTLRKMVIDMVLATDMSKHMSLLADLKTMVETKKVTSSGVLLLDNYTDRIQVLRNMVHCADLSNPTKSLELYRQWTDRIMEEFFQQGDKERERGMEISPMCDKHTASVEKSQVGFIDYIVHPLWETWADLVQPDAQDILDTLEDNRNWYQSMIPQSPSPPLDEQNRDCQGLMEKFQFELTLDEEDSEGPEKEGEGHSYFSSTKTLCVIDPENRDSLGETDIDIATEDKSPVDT

In the case of `O=C(c1ccc2c(c1)N(c1ncc(-c3ccc(Cl)s3)cn1)CC21CC1)N1CCOCC1` [Compound 131, [1-[5-(5-Chloro-thiophen-2-yl)-pyrimidin-2-yl]-spiro[1,2-dihydro-indole-3,1′-cyclopropane]-6-yl]-morpholin-4-yl-methanone], the IC50 fell in the range of 0.1 to 1 µM.

For `O=C(c1ccc2c(c1)N(c1ncc(-c3ccccc3F)cn1)CC21CC1)N1CCC2(COC2)C1` [Compound 68, [1-[5-(2-Fluorophenyl)-pyrimidin-2-yl]-spiro[1,2-dihydro-indole-3,1′-cyclopropane]-6-yl]-(2-oxa-7-azaspiro[3.4]octan-7-yl)-methanone], the IC50 fell in the range of 0.1 to 1 µM.

In the case of `O=C(NCCN1CCCC1=O)c1ccc2c(c1)N(c1ncc(-c3ccccc3F)cn1)CC21CC1` [Compound 78, 1-[5-(2-Fluorophenyl)-pyrimidin-2-yl]-N-[2-(2-oxo-pyrrolidin-1-yl)-ethyl]-spiro[1,2-dihydro-indole-3,1′-cyclopropane]-6-carboxylic acid amide], the IC50 lay in the range of 0.1 to 1 µM.

Regarding `N#Cc1ccc(-c2cnc(N3CC4(CC4)c4ccc(C(=O)N5CCOCC5)cc43)nc2)c(F)c1` [Compound 30, 3-Fluoro-4-[2-[6-(morpholine-4-carbonyl)-spiro[1,2-dihydro-indole-3,1′-cyclopropane]-1-yl]-pyrimidin-5-yl]-benzonitrile], the IC50 was in the range of 0.1 to 1 µM.

Turning to `COc1ccc(F)c(-c2cnc(N3CC4(CC4)c4ccc(C(=O)N5CCOCC5)cc43)nc2)c1` [Compound 16, [1-[5-(2-Fluoro-5-methoxy-phenyl)-pyrimidin-2-yl]-spiro[1,2-dihydro-indole-3,1′-cyclopropane]-6-yl]-morpholin-4-yl-methanone], the IC50 was under 0.1 µM.

For `O=C1CN(C(=O)c2ccc3c(c2)N(c2ncc(-c4cc(F)cc(F)c4)cn2)CC32CC2)CCN1` [Compound 128, 4-[1-[5-(3,5-Difluoro-phenyl)-pyrimidin-2-yl]-spiro[1,2-dihydro-indole-3,1′-cyclopropane]-6-carbonyl]-piperazin-2-one], the IC50 is under 0.1 µM.

Consider `CN(C)[C@@H]1CCN(C(=O)c2ccc3c(c2)N(c2ncc(-c4ccccc4F)cn2)CC32CC2)C1` [Compound 77, [(3R)-3-Dimethylamino-pyrrolidin-1-yl]-[1-[5-(2-fluorophenyl)-pyrimidin-2-yl]-spiro[1,2-dihydro-indole-3,1′-cyclopropane]-6-yl]-methanone], for which the IC50 lay in the range of 0.1 to 1 µM.

Consider `NC(=O)c1ccc(F)c(-c2cnc(N3CC4(CC4)c4ccc(C(=O)N5CCNCC5)cc43)nc2)c1` [Compound 116, 4-Fluoro-3-[2-[6-(piperazine-1-carbonyl)-spiro[1,2-dihydro-indole-3,1′-cyclopropane]-1-yl]-pyrimidin-5-yl]-benzamide], for which the IC50 is under 0.1 µM.

On to `Cc1ccnc(-c2cnc(N3CC4(CC4)c4ccc(C(=O)N5CCOCC5)cc43)nc2)c1` [Compound 192, [1-[5-(4-Methyl-pyridin-2-yl)-pyrimidin-2-yl]-spiro[1,2-dihydro-indole-3,1′-cyclopropane]-6-yl]-morpholin-4-yl-methanone], for which the IC50 is under 0.1 µM.

Turning to `CC1COCC(C)N1C(=O)c1ccc2c(c1)N(c1ncc(-c3ccccc3F)cn1)CC21CC1` (stereo not shown) [Compound 101, (3,5-Dimethyl-morpholin-4-yl)-[1-[5-(2-fluorophenyl)-pyrimidin-2-yl]-spiro[1,2-dihydro-indole-3,1′-cyclopropane]-6-yl]-methanone], the IC50 lay within 0.1 to 1 µM.

For the compound `O=C(c1ccc2c(c1)N(c1ncc(-c3ccccc3F)cn1)CC21CC1)N1CCCC(O)C1` (stereo not shown) [Compound 96, [1-[5-(2-Fluorophenyl)-pyrimidin-2-yl]-spiro[1,2-dihydro-indole-3,1′-cyclopropane]-6-yl]-(3-hydroxy-piperidin-1-yl)-methanone], the IC50 was under 0.1 µM.

In the case of “Morpholin-4-yl-[1-(5-pyridazin-3-yl-pyrimidin-2-yl)-spiro[1,2-di-hydro-indole-3,1′-cyclopropane]-6-yl]-methanone [Compound 191]”, the IC50 was under 0.1 µM.

For the compound `N#Cc1cccc(-c2cnc(N3CC4(CC4)c4ccc(C(=O)N5CCOCC5)cc43)nc2)c1` [Compound 56, 3-[2-[6-(Morpholine-4-carbonyl)-spiro[1,2-dihydro-indole-3,1′-cyclopropane]-1-yl]-pyrimidin-5-yl]-benzonitrile], the IC50 was under 0.1 µM.

As to `O=C(c1ccc2c(c1)N(c1ncc(Cc3ccccc3F)cn1)CC21CC1)N1CCOCC1` [Compound 178, [1-[5-[(2-Fluorophenyl)-methyl]-pyrimidin-2-yl]-spiro[1,2-dihydro-indole-3,1′-cyclopropane]-6-yl]-morpholin-4-yl-methanone], the IC50 fell in the range of 0.1 to 1 µM.

`CN(C)[C@@H]1CCN(C(=O)c2ccc3c(c2)N(c2ncc(-c4ccccc4F)cn2)CC32CC2)C1` [Compound 110, [(3R)-3-Dimethylamino-pyrrolidin-1-yl]-[1-[5-(2-fluorophenyl)-pyrimidin-2-yl]-spiro[1,2-dihydro-indole-3,1′-cyclopropane]-6-yl]-methanone]: the IC50 was 0.1 to 1 µM.

As to `O=C(c1cc2c(cn1)C1(CC1)CN2c1ncc(-c2ccccc2F)cn1)N1CCOCC1` [Compound 168, [1-[5-(2-Fluorophenyl)-pyrimidin-2-yl]-spiro[1,2-dihydro-pyrrolo[3,2-c]pyridine-3,1′-cyclopropane]-6-yl]-morpholin-4-yl-methanone], the IC50 lay in the range of 0.1 to 1 µM.

In the case of `COc1cccc(-c2cnc(N3CC4(CC4)c4ccc(C(=O)N(C)CCO)cc43)nc2)n1` [Compound 211, N-(2-Hydroxy-ethyl)-1-[5-(6-methoxy-pyridin-2-yl)-pyrimidin-2-yl]-N-methyl-spiro[1,2-dihydro-indole-3,1′-cyclopropane]-6-carboxylic acid amide], the IC50 was under 0.1 µM.

As to `O=C(c1ccc2c(c1)N(c1ncc(-c3ccccc3F)cn1)CC21CC1)N1CCNCC1` [Compound 5, [1-[5-(2-Fluorophenyl)-pyrimidin-2-yl]-spiro[1,2-dihydro-indole-3,1′-cyclopropane]-6-yl]-piperazin-1-yl-methanone], the IC50 is under 0.1 µM.

As to `O=C(c1ccc2c(c1)N(c1ncc(-c3cccnc3F)cn1)CC21CC1)N1CCOCC1` [Compound 145, [1-[5-(2-Fluoro-pyridin-3-yl)-pyrimidin-2-yl]-spiro[1,2-dihydro-indole-3,1′-cyclopropane]-6-yl]-morpholin-4-yl-methanone], the 50% inhibitory concentration (IC50) is under 0.1 µM.

For `O=C(c1ccc2c(c1)N(c1ncc(-c3ccccc3Cl)cn1)CC21CC1)N1CCOCC1` [Compound 6, [1-[5-(2-Chlorophenyl)-pyrimidin-2-yl]-spiro[1,2-dihydro-indole-3,1′-cyclopropane]-6-yl]-morpholin-4-yl-methanone], the IC50 was in the range of 0.1 to 1 µM.

Take `Cn1ccc(-c2cnc(N3CC4(CC4)c4ccc(C(=O)N5CC[C@@H](N)C5)cc43)nc2)c1` [Compound 172, [(3R)-3-Amino-pyrrolidin-1-yl]-[1-[5-(1-methyl-1H-pyrrol-3-yl)-pyrimidin-2-yl]-spiro[1,2-dihydro-indole-3,1′-cyclopropane]-6-yl]-methanone]: the IC50 was under 0.1 µM.

Regarding “[1-[5-(2-Fluorophenyl)-pyrimidin-2-yl]-spiro[1,2-dihydro-pyrrolo[2,3-b]pyridine-3,1′-cyclobutane]-6-yl]-morpholin-4-yl-methanone [Compound 171]”, the IC50 fell in the range of 0.1 to 1 µM.

Consider “[1-[5-(6-Methyl-pyridin-2-yl)-pyrimidin-2-yl]-spiro[1,2-dihydro-indole-3,1′-cyclopropane]-6-yl]-morpholin-4-yl-methanone [Compound 186]”, for which the IC50 is under 0.1 µM.

As to `O=C(c1ccc2c(c1)N(c1ncc(-c3ccccc3F)cn1)CC21CC1)N1CCOCC1` [Compound 1, [1-[5-(2-Fluorophenyl)-pyrimidin-2-yl]-spiro[1,2-dihydro-indole-3,1′-cyclopropane]-6-yl]-morpholin-4-yl-methanone], the concentration for half-maximal inhibition (IC50) is under 0.1 µM.

On to `NC(=O)c1cccc(-c2cnc(N3CC4(CC4)c4ccc(C(=O)N5CCOCC5)cc43)nc2)c1` [Compound 54, 3-[2-[6-(Morpholine-4-carbonyl)-spiro[1,2-dihydro-indole-3,1′-cyclopropane]-1-yl]-pyrimidin-5-yl]-benzamide], for which the IC50 is under 0.1 µM.

Regarding `NC(=O)c1ccc(-c2cnc(N3CC4(CC4)c4ccc(C(=O)N5CCOCC5)cc43)nc2)c(F)c1` [Compound 26, 3-Fluoro-4-[2-[6-(morpholine-4-carbonyl]-spiro[1,2-dihydro-indole-3,1′-cyclopropane]-1-yl]-pyrimidin-5-yl]-benzamide], the IC50 is under 0.1 µM.

Take `CC1COCCN1C(=O)c1ccc2c(c1)N(c1ncc(-c3ccccc3F)cn1)CC21CC1` (stereo not shown) [Compound 103, [1-[5-(2-Fluorophenyl)-pyrimidin-2-yl]-spiro[1,2-dihydro-indole-3,1′-cyclopropane]-6-yl]-(3-methyl-morpholin-4-yl)-methanone]: the half-maximal inhibitory concentration (IC50) was under 0.1 µM.

For “[1-[5-(6-Methyl-pyridazin-3-yl)-pyrimidin-2-yl]-spiro[1,2-dihydro-indole-3,1′-cyclopropane]-6-yl]-morpholin-4-yl-methanone [Compound 196]”, the IC50 was under 0.1 µM.

Turning to `N[C@@H]1CCN(C(=O)c2ccc3c(c2)N(c2ncc(-c4ccccc4)cn2)CC32CC2)C1` [Compound 108, [(3R)-3-Amino-pyrrolidin-1-yl]-[1-(5-phenyl-pyrimidin-2-yl)-spiro[1,2-dihydro-indole-3,1′-cyclopropane]-6-yl]methanone], the IC50 is under 0.1 µM.

As to “[1-[5-(1-Cyclopropyl-phenyl)-pyrimidin-2-yl]-spiro[1,2-dihydro-indole-3,1′-cyclopropane]-6-yl]-piperazin-1-yl-methanone [Compound 70]”, the IC50 lay within 0.1 to 1 µM.

Regarding `O=C(c1ccc2c(c1)N(c1ncc(-c3ccccc3F)cn1)CC21CC1)N1CCC2(CNC2)C1` [Compound 74, (2,6-Diazaspiro[3.4]octan-6-yl)-[1-[5-(2-fluorophenyl)-pyrimidin-2-yl]-spiro[1,2-dihydro-indole-3,1′-cyclopropane]-6-yl]-methanone], the IC50 fell in the range of 1 to 10 µM.
